Source: patent US12630589B2, “Compounds for use in viral infections” (priority 2020, dated 2026)
Like-named read-outs stand apart in the source and are kept apart here.

Legend:
[1] = tested on: NF-κB; experiment: NF-κB transactivation luciferase assay in THP-1 cells; assay type: cell-based, human; conditions: THP-1 NF-κB-Luc cells, 100 nM plitidepsin, 6 hours, with poly I:C, LPS-B5 or Resiquimod
Description: To that end, we took advantage of THP-1 cells stably transfected with an NFκB luciferase reporter plasmid. We treated the cells with 100 ng/mL TNFα (an activator of NF-κB), 500 μg/mL poly I:C (TLR3 ligand), 10 μg/mL LPS-B5 (TLR4 ligand) or 10 g/mL Resiquimod (TLR-7/8 ligand). The compounds were used either alone (FIG. 1A grey bars) or combined with 100 nM of plitidepsin (FIG. 1A black bars) for 6 hours, and quantified the luciferase activity under each condition.
NF-κB transactivation was assayed using the Bright-Glo™ Luciferase Assay System following the manufacturer's instructions. The NF-κB reporter (Luc)-THP-1 human monocytic, cells stably transfected with NF-κB-Luc plasmid (containing four NF-κB binding sites, a minimal promoter and a luciferase gene), were exposed to 100 ng/mL TNFα (positive control), 500 μg/mL poly (I:C) (Polyinosinic-polycytidylic), 10 μg/mL LPS-B5 (Lipopolysaccharide from Escherichia coli 055:B5) or 10 g/mL Resiquimod. The compounds were used either alone or combined with 100 nM plitidepsin for 6 hours. Luminescence was measured in a Perkin-Elmer EnVision reader. A MTT (3-(4,5-dimethylthiazol-2-yl)-2,5-diphenyltetrazolium bromide) cell proliferation assay was simultaneously performed to control the cytotoxicity of the compounds. Cell survival was expressed as percentage of control cell growth. […]

[2] = tested on: IL-1, IL-6, IL-8 and TNFα secretion; experiment: ELISA assays for secreted cytokines in THP-1 cells; assay type: cell-based, human; conditions: 100 nM plitidepsin, 6 hours, TLR ligands
Description: To investigate whether plitidepsin inhibits the TLR-trigged cytokine secretion, we treated THP-1 cells with 100 ng/mL TNFα (an activator of NF-κB), 500 μg/mL poly I:C (TLR3 ligand), 10 g/mL LPS-B5 (TLR4 ligand) or 10 g/mL Resiquimod (TLR-7/8 ligand). The compounds were used either alone (grey bars) or combined with 100 nM of plitidepsin (red bars) for 6 hours. We compared the variations in cytokine secretion in the cell culture supernatants between the different treatments by ELISA assays.
THP1-NFκB-LUC cell cultures were treated as described above, and the culture medium was sampled at 6 hours post-treatment to assay for secreted cytokines by ELISA. Media samples were stored at 4° C. IL-8, IL-1β, IL-6 and TNF□ protein secretion into culture medium was quantitated using highly specific and sensitive ELISA kits. Human IL-1b, human IL-6, human IL-8 and human TNF OptEIA™ ELISA kits were obtained from BD Biosciences and performed as described by the manufacturer. The data presented are the average of three independent experiments performed in triplicate.

[3] = tested on: IL6, IL8, IL1β and TNF-α secretion; experiment: Plitidepsin pre-treatment of THP-1 cells before Resiquimod stimulus, cytokine secretion; assay type: cell-based, human; conditions: 1, 10 or 50 nM added 8 hours before Resiquimod 2.5 or 5 μg/mL; read at 24 hours
Description: (§1) In a further in vitro experiment, the effect of plitidepsin (APL) pre-treatment on THP-1 cells was studied. Using a THP-1 NFκB luc line, 1, 10 or 50 nM of APL or DMSO (0.2%) was added 8 hours before stimulus with Resiquimod (RQ) at 2.5 or 5 μg/mL. RQ is a TLR7/8 agonist and mimics ssRNA. At 24 hours the level of cytokines or cell viability was measured.

[4] = tested on: THP-1 cells; experiment: Cell viability after plitidepsin pre-treatment and Resiquimod stimulus; assay type: cell-based, human; conditions: 1, 10 or 50 nM, Resiquimod 2.5 or 5 μg/mL, 24 hours
Description: as §1

[5] = tested on: IL-6, IL-10 and TNFα secretion; experiment: Ex vivo LPS-B5-triggered cytokine secretion in bronchoalveolar lavage cells of treated mice; parameters: species or system mouse
Description: We checked whether plitidepsin inhibits the LPS-trigged cytokine secretion in alveolar macrophages. To that end mice were injected i.v. with plitidepsin (1 mg/kg) or vehicle and 12 hours after administration bronchoalveolar lavage fluid (BAL) was collected. Cells were plated and treated ex-vivo or not with 15 μg/mL of LPS-B5 for 3 or 6 hours and secreted cytokines were measured.
Mice were randomized into groups of five animals to receive the treatments. Mice were injected intra venous (i.v.) with plitidepsin (1 mg/kg) and 12 hours after administration were euthanised. Control group received plitidepsin vehicle diluted with saline (Cremophor/Ethanol/Water). Bronchoalveolar lavage fluid (BAL) of each group was collected and centrifugated to obtain bronchoalveolar lavage cells. Cells underwent red blood cell lysis (Roche) and were plated and treated ex-vivo or not with 15 μg/mL of LPS-B5 for 3 or 6 hours. Secreted cytokines were measured using highly specific and sensitive ELISA kits. Mouse IL-6, mouse IL-10 and mouse TNF DuoSet ELISA kits were obtained from R&D Systems and performed as described by the manufacturer.

[6] = tested on: TNFα; experiment: Resiquimod-triggered TNFα secretion in BALF of mice; assay type: in vivo; conditions: mice 1 mg/kg i.v. 1 hour before 50 μg/mouse intranasal RQ; 1 or 3 hours
[7] = tested on: alveolar macrophages; experiment: Alveolar macrophage recruitment in mice (LPS inflammation model, flow cytometry); conditions: for macrophages in bronchoalveolar lavage: single iv administration
Source text: Also we checked the effect of plitidepsin on alveolar macrophage recruitment. Viral infection also leads to the activation of macrophages. Activated macrophages are twice the size of resting macrophages and are more “aggressive”, having increased levels of lysosomal proteins and a greater ability to phagocytose. Classically activated macrophages also release proteases, neutrophil chemotactic factors, reactive oxygen species and pro-inflammatory cytokines (such as IL-1 beta/IL-1F2, IL-6, and TNF-alpha/TNFSF1A), leading to inflammation and tissue destruction. Bronchoalveolar lavage cells were stained and analyced by flow cytometry.
To investigate whether plitidepsin decreases the percentage of alveolar macrophage in animals with acute inflammation, we treated mice with plitidepsin (1 mg/kg) i.v., with LPS (20 μg/kg) i.p. in sterile saline or with plitidepsin (1 mg/kg; i.v.) in combination with LPS (20 μg/kg, i.p.). Three hours later, bronchoalveolar lavages were collected. Bronchoalveolar lavage cells were obtained by centrifugation and analyzed by flow cytometry (FIG. 4b). Upper panels show the strategy of analysis of macrophage population present in the samples. Lower right panel show the same result expressed as percentage of cells. Lower left panel show the percentage of CD45+(leucocyte marker) alive cells.
Bronchoalveolar lavage cells were obtained by centrifugation and analyzed by flow cytometry.
Bronchoalveolar lavage cells were stained with anti-F4/80-BV510, CD45-APC700, CD11b-BV650, CD11c-APC-Fire, CD24-PC7 and Ly6C-BV605 monoclonal antibodies (Biolegend) and a LIVE/DEAD™ Fixable Green Dead Cell Stain Kit, for 488 nm excitation (Thermofisher). Macrophages (F4/80+) were gated on alive immune cells (CD45+ LIVE/DEAD dye−), while alveolar macrophages (F4/80+CD24−) were specifically gated on CD11c+CD11b− population from alive immune cells. Isotype controls and compensation beads were used to set compensations and gating strategies.

[8] = Plasma pharmacokinetics in mouse (Table 1); assay type: in vivo; conditions: Mouse (F) C57BL6/J, 1.0 mg/kg single intravenous bolus
[9] = tested on: WNV-GFP (lineage 2; molecular clone WN956); experiment: WNV-GFP infection efficiency in Huh7 cells; assay type: cell-based, West Nile virus
[10] = tested on: VeroE6 cells; experiment: Cell biomass (DAPI) in VeroE6 cells; assay type: cell-based, African green monkey; conditions: 48 hours
Description: (§2) Relative infection efficiency was assessed by automated fluorescence microscopy in the green channel and overall cell biomass/well was estimated by nuclear staining with DAPI in the blue channel, as a preliminary assessment of the compound effective doses as well as overall compound cytotoxicity.
(§3) Infection experiments: Cells were seeded onto 96-well plates (2×10^4 cells/well). The day after, serial 5-fold dilutions of plitidepsin were prepared in 2% FCS-containing complete media to achieve the indicated final concentrations. WNV-GFP stock was diluted in complete media containing 2% FCS to achieve the required multiplicity of infection (MOI 0.01). Compound and virus dilutions were mixed 1:1 and added onto the target cells. Cells were incubated for 48 hours at 37° C.; 5% CO2 and 95% humidity.
(§4) Cells were fixed by addition of a 5× formaldehyde solution to achieve a 4% final concentration for 30 mins at room temperature. Cells were washed with PBS and stained with DAPI (4′,6-diamidino-2-phenylindole) following manufacturer's recommendations. Relative infection efficiency was estimated by image analysis in an automated microscopy device (Tecan Spark Cyto). Uninfected cells and vehicle-treated controls were included in each plate.

[11] = tested on: Huh7 cells; experiment: Cell biomass (DAPI) in Huh7 cells; assay type: cell-based, human; conditions: 48 hours
Description: as §2, §3, §4

[12] = tested on: WNV-NY99 (lineage 1); experiment: WNV/NY99 extracellular infectivity titers, Vero-E6 cells; assay type: cell-based, West Nile virus; conditions: VeroE6 cells, 45 nM, MOI 0.01, 48 hours
[13] = tested on: WNV-NY99 (lineage 1); experiment: WNV/NY99 extracellular infectivity titers, Huh-7 cells; assay type: cell-based, West Nile virus; conditions: 45 nM, MOI 0.01, 48 hours
[14] = tested on: WNV-NY99 (lineage 1); experiment: Intracellular WNV RNA load by RT-qPCR, Vero-E6 cells; assay type: cell-based, West Nile virus; conditions: 48 hours
[15] = tested on: WNV-NY99 (lineage 1); experiment: Intracellular WNV RNA load by RT-qPCR, Huh-7 cells; assay type: cell-based, West Nile virus; conditions: 48 hours
[16] = tested on: WNV-GFP (lineage 2; molecular clone WN956)
[17] = tested on: THP-1 human monocytic cells; experiment: MTT cell proliferation assay (compound-induced cytotoxicity); conditions: activators combined with 100 nM plitidepsin, 6 hours
Description: To that end, we took advantage of THP-1 cells stably transfected with an NFκB luciferase reporter plasmid. We treated the cells with 100 ng/mL TNFα (an activator of NF-κB), 500 μg/mL poly I:C (TLR3 ligand), 10 μg/mL LPS-B5 (TLR4 ligand) or 10 g/mL Resiquimod (TLR-7/8 ligand). The compounds were used either alone (FIG. 1A grey bars) or combined with 100 nM of plitidepsin (FIG. 1A black bars) for 6 hours, and quantified the luciferase activity under each condition. […] Survival was analysed with the MTT assay (FIG. 1B grey bars (activators) and red bars (activators combined with 100 nM of plitidepsin)).
NF-κB transactivation was assayed using the Bright-Glo™ Luciferase Assay System following the manufacturer's instructions. […] Luminescence was measured in a Perkin-Elmer EnVision reader. […] Cell survival was expressed as percentage of control cell growth. […]
Cells were seeded in 96 well microtiter plates and allowed to stand for 24 hours at 37° C. and 5% CO2 before treatment described above. After 6 hours of continuous treatment, cellular viability was estimated from conversion of MTT to its coloured reaction product, MTT formazan, which was dissolved to measure its absorbance at 540 nm. […]

Substance: (−)-(3S,6R,7S,10R,11S,15S,17S,20S,25aS)-11-hydroxy-3-(4-methoxybenzyl)-2,6,17-trimethyl-15-(1-methylethyl)-7-[[(2R)-4-methyl-2-[methyl[[(2S)-1-(2-oxopropanoyl)pyrrolidin-2-yl]carbonyl]amino]pentanoyl]amino]-10-[(1S)-1-methylpropyl]-20-(2-methylpropyl)tetradecahydro-15H-pyrrolo[2,1-f]-[1,15,4,7,10,20]dioxatetrazacyclotricosine-1,4,8,13,16,18,21(17H)-heptone [PLD]
- NF-κB transactivation (production of luciferase) [1]: clearly inhibited the production of luciferase
- production of IL-1, IL-6, IL-8 and TNFα (ELISA) [2]: clearly inhibited the production of IL-1, IL-6, IL-8 and TNFα
- secretion of IL6, IL8, IL1β and TNF-α induced by RQ [3]: inhibited secretion of the pro-inflammatory cytokines: IL6, IL8, IL1β and TNF-α
- cell viability over the untreated control [4]: does not decrease viability over the untreated control
- production of IL-6 and TNF-α induced by LPS ([5]; mice 1 mg/kg i.v., BAL at 12 hours, cells treated ex vivo with 15 μg/mL LPS-B5 for 3 or 6 hours): clearly inhibited the production of pro-inflammatory cytokines IL-6, and TNF-α
- secretion of IL-6, IL-10 and TNFα induced by LPS-B5 in CD45+ cells from broncho-alveolar lavages ([5]; treated animals, 3 and 6 hours): significantly reduce the secretion of IL-6, IL-10 and TNFα
- production of TNFα induced by Resiquimod in BALF [6]: prevented the increased production of TNFα
- cytotoxic effects on bronchoalveolar lavage cells ([7]; 1 mg/kg i.v.): without cytotoxic effects
- percentage of macrophages present on bronchoalveolar lavage ([7]; plitidepsin 1 mg/kg i.v. with LPS 20 μg/kg i.p., 3 hours): decrease the percentage of macrophages
- macrophages in bronchoalveolar lavage [7]: reduces the number of macrophages in BAL
- macrophages in bronchoalveolar lavage ([7]; listed as Plitidepsin): decreased the percentage of macrophages
- Cl [8]: 73.3 mL/min/kg
- EC50 ([9]; Huh7 cells, MOI 0.01, 48 hours): 0.665 nM
- EC90 ([9]; Huh7 cells, MOI 0.01, 48 hours): 3.86 nM
- concentration with antiviral activity in the absence of measurable interference with cell viability (p<0.05) ([9]; Huh-7 cells): 1.5 nM
- concentration at which cell number significantly decreased (p<0.05) [10]: 180 nM
- concentration up to which cell number remained unchanged [10]: up to 36 nM
- CC50 ([10]; read-out: CC50 based on the cell biomass): 2330 nM
- CC50 [11]: 14.7 nM
- concentration at which loss of cell biomass is statistically significant (p<0.05) [11]: 7.2 nM
- reduction of extracellular infectivity titers [12]: > 3 orders of magnitude
- reduction of extracellular infectivity titers [13]: > 3 orders of magnitude
- intracellular viral RNA load ([14]; 5 and 1.5 nM): not distinguishable from those in the control
- intracellular viral RNA load ([14]; 15 and 45 nM): significantly decreased in a dose-dependent manner
- intracellular viral RNA load ([15]; 15 nM): marked reduction in viral load
- RNA recovery from cells ([15]; 45 nM): no RNA could be recovered
- concentration with antiviral activity in the absence of measurable interference with cell viability (p<0.05) ([16]; Vero-E6 cells): 7.2 nM
- therapeutic index (ratio CC50/EC50) ([16]; VeroE6 cells): 475
- concentration at which infection efficiency reaches background fluorescence levels ([16]; VeroE6 cells, 48 hours): ≥ 36 nM
- EC50 ([16]; read-out: EC50, WNV-GFP infection efficiency, VeroE6 cells, MOI 0.01, 48 hours): 4.9 nM
- EC90 ([16]; read-out: EC90, WNV-GFP infection efficiency, VeroE6 cells, MOI 0.01, 48 hours): 9.5 nM
- cytotoxic effect (survival, MTT assay) [17]: No cytotoxic effect was detected
